Measured values from patent US7629361B2, “Salt of (S)-pantoprazole and its hydrates” (NYCOMED GmbH, priority 2002, dated 2009).
“Also recorded” adds a separate entry of the source.

Tests used:
human liver microsomes = assay: Metabolization on human liver microsomes; format: in vitro ADME; details: 10 μM, 1 mg/ml protein, 120 min, n=3
Description: (§1) I) Human liver microsomes: Pantoprazole racemate and the (+)- and (−)-enantiomers (10 μM each) were incubated with human liver microsomes (source: TEBU, incubation in 1 mg/ml protein, 100 mM Tris-HCl, pH 7.4, 1 mM NADPH2). Reaction was terminated after 30 and 120 minutes by liquid nitrogen, the parent compound was detected by HPLC (10 mM KH2PO4, pH 7.4, acetonitril gradient 20-48%).

Recombinant CYP 2C19 = molecular target: T1, Recombinant CYP 2C19 (Homo sapiens, UniProt P33261); assay: Metabolization on recombinant CYP 2C19; format: in vitro ADME; details: 10 μM, 0.1 mg/ml protein, 120 min, n=3
T1 construct: purchased GENTEST
T1 sequence (P33261 whole entry): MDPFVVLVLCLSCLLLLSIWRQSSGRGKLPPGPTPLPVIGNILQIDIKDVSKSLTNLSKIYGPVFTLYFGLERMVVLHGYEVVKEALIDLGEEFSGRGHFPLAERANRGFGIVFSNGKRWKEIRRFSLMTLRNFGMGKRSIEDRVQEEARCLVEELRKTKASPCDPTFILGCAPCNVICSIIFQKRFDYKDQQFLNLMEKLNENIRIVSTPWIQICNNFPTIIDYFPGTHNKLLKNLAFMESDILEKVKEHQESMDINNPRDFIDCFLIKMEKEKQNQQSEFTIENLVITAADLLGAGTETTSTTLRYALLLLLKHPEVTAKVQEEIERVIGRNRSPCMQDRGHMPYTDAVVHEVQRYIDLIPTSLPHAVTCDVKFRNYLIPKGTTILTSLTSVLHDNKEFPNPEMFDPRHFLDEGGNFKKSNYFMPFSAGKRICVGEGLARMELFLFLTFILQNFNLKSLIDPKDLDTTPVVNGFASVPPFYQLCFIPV
Description: as §1
II) Recombinant CYP 2C19 (source: GENTEST); incubation method as described under I) (in presence of 0.1 mg/ml protein).

[1] = Hygroscopicity / water content of the salts; format: physicochemical; details: depending on drying conditions and atmospheric humidity
Description: Drying was carried out in a vacuum drying cabinet at <50 mbar and 40-45° C. [It is also possible to dispense with drying and to use the moist product (having an MIBK content of 10-20%) directly for step B].

[2] = Storage stability of the solid salts at elevated temperature
[3] = test system: pentagastrin-stimulated acid output in the Ghosh-Schild rat; assay: Inhibition of acid output in the Ghosh-Schild rat after i.v. administration; format: in vivo; details: 1 μmol/kg i.v. 3 hours prior to pentagastrin stimulation; 3 to 7.5 hours after administration; FIG. 3; listed as (−)-enantiomer, Dihydrate
Description: Female Sprague Dawley CD rats (190-210 g body weight) were anaesthetised with 1.5 g/kg i.m. of urethane, in 5 ml/kg physiologic saline. The trachea was intubated and both, the left external jugular vein (for drug administration) and left femoral vein (for pentagastrin infusion) were cannulated. An esophagus/cardia-cannula (diameter: 1.7 mm) was inserted transorally, and a pylorus-cannula (diameter: 2.6 mm) was inserted through the duodenum, and both were secured with a ligature. The pyloric catheter was led through the right abdominal wall. Body temperature was maintained at 37.0±0.2° C. by means of infrared radiation and electric cushion (automatic infinite control via rectal temperature probe). After thorough flushing (about 50-100 ml), the stomach was continuously perfused with 0.5 ml/min of physiologic saline (37° C.). In the effluate, collected at 15 min intervals, the pH as well as the acid output were determined, the latter by titration to pH 7 with freshly prepared 0.01 N NaOH.
Gastric secretion was stimulated by a continuous intravenous infusion (left femoral vein) of 1 μg/kg×min pentagastrin (in 1.6 ml/h physiologic saline) starting after determination of two basal values of acid secretion, i.e., 30 min after commencement of stomach perfusion. See horizontal bars in FIGS. 1 and 2 for pentagastrin-infusion. […]

[4] = Wettability, dissolution rate and solubility compared to racemic pantoprazole magnesium dihydrate

Row | Compound | metabolized on human microsomes (mean) (human liver microsomes) [%] | metabolized on CYP2C19 (mean) (Recombinant CYP 2C19) [%] | water content [1] | hygroscopicity (absorption of water) [1] | further results
1 | COc1ccnc(C[S+]([O-])c2nc3ccc(OC(F)F)cc3[nH]2)c1OC (racemic) [racemate, 5-difluoromethoxy-2-[(3,4-dimethoxy-2-pyridinyl)methylsulphinyl]-1H-benzimidazole] | 44 | 67 | – | – | –
2 | COc1ccnc(C[S+]([O-])c2nc3ccc(OC(F)F)cc3[nH]2)c1OC (single isomer, unassigned; (+)) [(+) enantiomer] | 44 | 64 | – | – | –
3 | COc1ccnc(C[S+]([O-])c2nc3cc(OC(F)F)ccc3[nH]2)c1OC (single isomer, unassigned; (-)) [(−)-Pantoprazole, (−)-[5-(difluoromethoxy)]-2-[(3,4-dimethoxy-2-pyridinyl)methylsulphinyl]-1H-benzimidazole] | 26 | 54 | – | – | –
4 | COc1ccnc(C[S+]([O-])c2nc3cc(OC(F)F)ccc3[n-]2)c1OC.COc1ccnc(C[S+]([O-])c2nc3cc(OC(F)F)ccc3[n-]2)c1OC.[Ca+2] (single isomer, unassigned; (-)) [(−)-pantoprazole calcium] | – | – | 4-8% | – | –
5 | COc1ccnc(C[S+]([O-])c2nc3cc(OC(F)F)ccc3[n-]2)c1OC.[Na+] (single isomer, unassigned; (-)) [(−)-pantoprazole sodium] | – | – | – | absorbs water | purity (according to HPLC) after storage ([2]; storage at 60-70° C., atmospheric conditions, starting purity 99.5%): 96-97%; hygroscopicity (absorption of water) ([1]; listed as (−)-Pantoprazole-Na): hygroscopic
6 | Magnesium (−)-bis{[5-(difluoromethoxy)]-2-[(3,4-dimethoxy-2-pyridinyl)methylsulphinyl]-1H-benzimidazolide} Dihydrate [(−)-pantoprazole magnesium dihydrate] | – | – | about 4.4% | non-hygroscopic | inhibition of acid secretion, Experiment 2, compared to the (+)-enantiomer [3]: significantly superior; also recorded: significantly more effective; stability (discolouration, decomposition) on storage ([2]; 70° C., one week): completely stable; sum of by-products on storage ([2]; storage under atmospheric conditions, 60-70° C.): remains virtually constant; wettability compared to racemic pantoprazole magnesium dihydrate [4]: better wettability; dissolution rate compared to racemic pantoprazole magnesium dihydrate ([4]; pH 7-7.4): considerably higher dissolution rate; solubility relative to racemic pantoprazole magnesium dihydrate ([4]; pH 10): about tenfold
